Data: PubChem BioAssay (NCI)
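GI50 = concentration required for 50% inhibition of growth. Definition used: TGI = concentration required for complete inhibition of growth.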

Legend:
Assay in all cases: NCI-60 cell line screen, 384-well format
[1] = test system: HL-60(TB) leukemia
[2] = test system: NCI-H522 lung
[3] = test system: HCT-116 colon
[4] = test system: MDA-MB-468 breast
[5] = test system: SK-MEL-28 melanoma
[6] = test system: SF-539 CNS
[7] = test system: A549 NSCLC
[8] = test system: OVCAR-8 ovarian
[9] = test system: U251 glioblastoma
[10] = test system: SK-MEL-5 melanoma
[11] = test system: T-47D breast
[12] = test system: CAKI-1 renal
[13] = test system: HOP-92 NSCLC
[14] = test system: BT-549 breast
[15] = test system: 786-0 renal
[16] = test system: NCI-H322M lung
[17] = test system: ACHN renal
[18] = test system: HS 578T breast
[19] = test system: LOX IMVI melanoma
[20] = test system: M14 melanoma
[21] = test system: PC-3 prostate
[22] = test system: KM12 colon
[23] = test system: SF-268 CNS
[24] = test system: HOP-62 NSCLC
[25] = test system: SF-295 CNS
[26] = test system: SK-OV-3 ovarian
[27] = test system: SW-620 colon
[28] = test system: OVCAR-3 ovarian
[29] = test system: MDA-MB-435 melanoma
[30] = test system: K-562 leukemia
[31] = test system: SN12C renal
[32] = test system: MCF7 breast
[33] = test system: MOLT-4 leukemia
[34] = test system: NCI/ADR-RES ovarian
[35] = test system: CCRF-CEM leukemia
[36] = test system: HCC-2998 colon
[37] = test system: RXF 393 renal
[38] = test system: COLO 205 colon
[39] = test system: HT29 colon
[40] = test system: A498 renal
[41] = test system: HCT-15 colon
[42] = test system: RPMI-8226 leukemia
[43] = test system: EKVX NSCLC
[44] = test system: NCI-H23 lung
[45] = test system: IGROV1 ovarian
[46] = test system: DU-145 prostate
[47] = test system: NCI-H226 lung
[48] = test system: MDA-MB-231 breast
[49] = test system: MALME-3M melanoma
[50] = test system: UACC-257 melanoma
[51] = test system: UACC-62 melanoma
[52] = test system: OVCAR-4 ovarian
[53] = test system: SNB-75 CNS
[54] = test system: UO-31 renal
[55] = test system: TK-10 renal
[56] = test system: NCI-H460 NSCLC
[57] = test system: OVCAR-5 ovarian
[58] = test system: SNB-19 CNS
[59] = test system: SK-MEL-2 melanoma

CNC(=O)c1ccc(Nc2nc(OC3CCCC3)c3c(-c4ccc5nc(C)oc5c4)c[nH]c3n2)c(OC)c1
GI50 [1]: 0.0408 µM | TGI [1]: 1.31 µM | GI50 [2]: 0.0998 µM | TGI [2]: 1.44 µM | GI50 [3]: 0.0467 µM | TGI [3]: 11 µM | GI50 [4]: 0.0454 µM | TGI [4]: 0.226 µM | GI50 [5]: 5.58 µM | TGI [5]: 30.5 µM | GI50 [6]: 0.0476 µM | TGI [6]: 1.84 µM | GI50 [7]: 0.0223 µM | TGI [7]: 2.89 µM | GI50 [8]: 0.0458 µM | TGI [8]: 12.5 µM | GI50 [9]: 0.063 µM | TGI [9]: 16 µM | GI50 [10]: 0.0735 µM | TGI [10]: 1.55 µM | GI50 [11]: 0.25 µM | TGI [11]: > 100 µM | GI50 [12]: 0.387 µM | TGI [12]: 3.29 µM | GI50 [13]: 0.681 µM | TGI [13]: 9.34 µM | GI50 [14]: 0.0949 µM | TGI [14]: 65.1 µM | GI50 [15]: 0.065 µM | TGI [15]: 14.2 µM | GI50 [16]: 0.593 µM | TGI [16]: 52.8 µM | GI50 [17]: 0.0878 µM | TGI [17]: 15.5 µM | GI50 [18]: 0.0775 µM | TGI [18]: 0.891 µM | GI50 [19]: 0.0454 µM | TGI [19]: 14.2 µM | GI50 [20]: 0.0843 µM | TGI [20]: 63.8 µM | GI50 [21]: 0.896 µM | TGI [21]: 15.2 µM | GI50 [22]: 0.0817 µM | TGI [22]: > 100 µM | GI50 [23]: 0.0185 µM | TGI [23]: 0.0727 µM | GI50 [24]: 0.0376 µM | TGI [24]: 5.77 µM | GI50 [25]: 0.265 µM | TGI [25]: > 100 µM | GI50 [26]: 0.352 µM | TGI [26]: 5.28 µM | GI50 [27]: 0.0535 µM | TGI [27]: 0.762 µM | GI50 [28]: 0.169 µM | TGI [28]: 0.965 µM | GI50 [29]: 11 µM | TGI [29]: 49.1 µM | GI50 [30]: 0.121 µM | TGI [30]: 19.4 µM | GI50 [31]: 0.224 µM | TGI [31]: 2.76 µM | GI50 [32]: 0.13 µM | TGI [32]: 15.7 µM | GI50 [33]: 0.0118 µM | TGI [33]: 0.0304 µM | GI50 [34]: 0.316 µM | TGI [34]: 60.5 µM | GI50 [35]: 0.0226 µM | TGI [35]: 0.0445 µM | GI50 [36]: 24.5 µM | TGI [36]: > 100 µM | GI50 [37]: 0.106 µM | TGI [37]: 1.96 µM | GI50 [38]: 0.0331 µM | TGI [38]: 0.233 µM | GI50 [39]: 0.0845 µM | TGI [39]: > 100 µM | GI50 [40]: 0.239 µM | TGI [40]: 9.43 µM | GI50 [41]: 0.0375 µM | TGI [41]: 2.84 µM | GI50 [42]: 0.0618 µM | TGI [42]: 0.271 µM | GI50 [43]: 0.187 µM | TGI [43]: 15.3 µM | GI50 [44]: 0.0643 µM | TGI [44]: 0.615 µM | GI50 [45]: 0.145 µM | TGI [45]: 15.8 µM | GI50 [46]: 0.0743 µM | TGI [46]: 15.8 µM | GI50 [47]: 0.381 µM | TGI [47]: 9.7 µM | GI50 [48]: 0.29 µM | TGI [48]: > 100 µM | GI50 [49]: 0.0936 µM | TGI [49]: 14.2 µM | GI50 [50]: 0.328 µM | TGI [50]: 47.3 µM | GI50 [51]: 0.167 µM | TGI [51]: 96.4 µM | GI50 [52]: 1.9 µM | TGI [52]: 17.7 µM | GI50 [53]: 0.0686 µM | TGI [53]: 1.78 µM | GI50 [54]: 0.0898 µM | TGI [54]: > 100 µM | GI50 [55]: 0.626 µM | TGI [55]: > 100 µM | GI50 [56]: 0.0348 µM | TGI [56]: 1.71 µM | GI50 [57]: 0.146 µM | TGI [57]: > 100 µM | GI50 [58]: 0.225 µM | TGI [58]: 41.6 µM

Nc1nc(F)nc2c1ncn2C1OC(COP(=O)(O)O)C(O)C1O (centres undefined)
GI50 [1]: 3.71 µM | TGI [1]: 11 µM | GI50 [2]: 59.7 µM | GI50 [3]: 19.3 µM | GI50 [4]: 71 µM | GI50 [5]: 7.83 µM | GI50 [7]: 36.1 µM | GI50 [8]: 3.16 µM | TGI [8]: 15.8 µM | GI50 [59]: 51.7 µM | TGI [59]: 84.5 µM | GI50 [9]: 90.2 µM | GI50 [11]: 83 µM | GI50 [12]: 25.3 µM | GI50 [13]: 30.9 µM | GI50 [14]: 20 µM | TGI [14]: 96.9 µM | GI50 [15]: 33 µM | GI50 [17]: 32.9 µM | GI50 [18]: 55 µM | GI50 [19]: 45.4 µM | GI50 [20]: 8.5 µM | TGI [20]: 37.3 µM | GI50 [21]: 37.6 µM | GI50 [23]: 48.3 µM | GI50 [24]: 5.8 µM | TGI [24]: 21.2 µM | GI50 [26]: 24 µM | GI50 [28]: 58.4 µM | GI50 [29]: 49.9 µM | GI50 [30]: 58.4 µM | GI50 [31]: 4.96 µM | TGI [31]: 21.8 µM | GI50 [32]: 41.2 µM | GI50 [33]: 1.53 µM | TGI [33]: 2.89 µM | GI50 [34]: 4.74 µM | TGI [34]: 41.2 µM | GI50 [35]: 1.91 µM | TGI [35]: 3.57 µM | GI50 [40]: 31.2 µM | GI50 [41]: 39.9 µM | GI50 [44]: 11.7 µM | TGI [44]: 32.9 µM | GI50 [46]: 21.6 µM | TGI [46]: 93.8 µM | GI50 [48]: 32.9 µM | GI50 [49]: 25.1 µM | GI50 [51]: 23.2 µM | TGI [51]: 54.1 µM | GI50 [54]: 30.6 µM | GI50 [57]: 57.5 µM | GI50 [58]: 20.6 µM
